What was measured:
[1] = target: Cyclin-dependent kinase 2 (Homo sapiens, UniProt P24941)
[2] = target: Cyclin-dependent kinase 6/G1/S-specific cyclin-D1 (Homo sapiens, UniProt Q00534)
Cyclin-dependent kinase 6/G1/S-specific cyclin-D1, sequence (P24385 whole entry): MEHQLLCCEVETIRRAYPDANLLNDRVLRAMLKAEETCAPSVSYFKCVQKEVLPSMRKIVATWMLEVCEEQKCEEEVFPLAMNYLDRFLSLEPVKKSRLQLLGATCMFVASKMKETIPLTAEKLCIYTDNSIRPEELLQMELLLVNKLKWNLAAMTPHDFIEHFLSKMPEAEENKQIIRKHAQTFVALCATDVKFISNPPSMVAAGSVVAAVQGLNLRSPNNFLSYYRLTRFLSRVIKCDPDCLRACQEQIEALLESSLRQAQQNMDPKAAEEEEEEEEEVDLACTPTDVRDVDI
Cyclin-dependent kinase 6/G1/S-specific cyclin-D1, sequence (Q00534 whole entry): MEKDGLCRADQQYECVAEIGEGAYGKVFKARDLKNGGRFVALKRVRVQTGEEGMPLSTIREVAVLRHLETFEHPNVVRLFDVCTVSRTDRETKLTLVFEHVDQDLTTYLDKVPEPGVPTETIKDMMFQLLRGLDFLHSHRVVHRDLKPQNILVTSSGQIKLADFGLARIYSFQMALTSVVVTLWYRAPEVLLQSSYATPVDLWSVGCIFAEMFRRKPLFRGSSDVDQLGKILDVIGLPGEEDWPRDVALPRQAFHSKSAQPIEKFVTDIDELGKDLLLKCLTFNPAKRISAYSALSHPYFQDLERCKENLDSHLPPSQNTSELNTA

IC50 [1] [nM] | IC50 [2] [nM] | SMILES
896 |  | CCN1CCN(Cc2ccc(Nc3ncc4c(n3)-c3c(nn(CC)c3C(C)C)CC4)nc2)CC1 [US11168088, Compound P-2]
3000 |  | CCc1nc2c(n1C(C)C)-c1nc(Nc3ccc(CN4CCN(CC)CC4)cn3)ncc1C2 [US11168088, Compound P-5]

Second part, the molecule before the results:

SMILES | IC50 [1] [nM] | IC50 [2] [nM]
Cc1c2c(nn1C)CCc1cnc(Nc3ccc(CN4CCN(C)CC4)cn3)nc1-2 [US11168088, Compound D1] | 23 | 
CCN1CCN(c2ccc(Nc3ncc4c(n3)-c3c(cnn3C(C)C)CC4)nc2)CC1 [US11168088, Compound P-12] | 7980 | 
CC(C)c1nn(C)c2c1-c1nc(Nc3ccc(N4CCNCC4)cn3)ncc1C2 [US11168088, Compound P-16] |  | 53
CC(C)n1ncc2c1-c1nc(Nc3ccc(N4CCNCC4)cn3)ncc1CC2 [US11168088, Compound P-25] | 8520 | 

From BindingDB's records for patent US11168088 (2021)
